How the values were obtained:
[1] = molecular target: ErbB4 (Homo sapiens (Human), UniProt Q15303); experiment: Enzyme selectivity test (ELISA), ErbB4; type: biochemical
Protocol: (§1) 1) Enzyme reaction substrate Poly(Glu, Tyr) 4:1 was diluted to 20 μg/mL with potassium-free PBS (10 mM sodium phosphate buffer, 150 mM NaCl, pH 7.2-7.4), and the microtiter plate was coated with 125 μL/well and placed at 37° C. for 12-16 hours of reaction. The liquid in the well was discard. The plate was washed three times with T-PBS (potassium-free PBS containing 0.1% Tween-20, 200 μL/well), 5 minutes each time. The ELISA plate was dried in an oven at 37° C. for 1 to 2 hours.
(§2) 2) Reaction buffer (50 mM HEPES pH 7.4, 50 mM MgCl2, 0.5 mM MnCl2, 0.2 mM Na3VO4, 1 mM DTT) diluted ATP solution (49 μL) was added to each well, 1 μL of the compound to be tested was added to each well, and then 50 μL of DDR2 kinase domain recombinant protein diluted in the reaction buffer was added to start the reaction. Two control wells without ATP were set in each experiment. The plate placed on a shaker (100 rpm) at 37° C. for 1 hour of reaction. The liquid in the well was discarded and the plate was washed three times with T-PBS.
(§3) 3) Antibody PY99 dilution solution (the antibody was diluted 1:500 with T-PBS containing BSA 5 mg/mL) was added at 100 μL/well, and shaken on a shaker at 37° C. for 0.5 hour of reaction. The liquid in the well was discarded and the plate was washed three times with T-PBS.
(§4) 4) Horseradish peroxidase labeled goat anti-murine secondary antibody dilution solution (the antibody is diluted 1:2000 with T-PBS containing BSA 5 mg/ml) was added at 100 μL/well, and shaken on a shaker at 37° C. for 0.5 hour of reaction. The liquid in the well was discarded and the plate was washed three times with T-PBS.
(§5) 5) 2 mg/ml of OPD color developing solution [diluted with 0.1 M citric acid-sodium citrate buffer (pH=5.4) containing 0.03% H2O2] was added at 100 μL/well and reacted for 1 to 10 minutes at 25° C. in the dark.
(§6) 6) 2M H2SO4 was added at 50 μL/well to stop the reaction, and a tunable wavelength microplate reader VERSAmax was used for reading at a wavelength of 490 nm.
(§7) The IC50 value was obtained by four-parameter regression using the software that came with the microplate reader. […]

[2] = molecular target: PDGFR-α (Homo sapiens (Human), UniProt P16234); experiment: Enzyme selectivity test (ELISA), PDGFR-α; type: biochemical
Protocol: as §1, §2, §3, §4, §5, §6, §7

[3] = tested on: kinases; experiment: Enzyme selectivity test, kinase panel overall; type: biochemical; conditions: kinase panel of Table 5
Description: Except that the enzyme was different, other test methods and conditions were the same as the DDR2 enzyme activity test method in Effect example 1.

[4] = molecular target: DDR2 (Homo sapiens (Human), UniProt Q16832); experiment: DDR2 enzyme activity test (ELISA); type: biochemical; conditions: read-out: DDR2 IC50
Protocol: The optical rotation and the inhibitory activity against DDR2 enzyme of the compounds S11-A and S11-B obtained by the resolution in Example 12, and the chirally synthesized compounds S11-A′ and S11-B′ in Example 13 were tested (referred to the operation in Effect example 1), and the results are shown in Table 3 below:
Detection method: Enzyme-linked immunosorbent assay (ELISA)
Test receptor tyrosine kinase: DDR2
The kinase used in the experiment was obtained by our laboratory using the insect baculovirus expression system to express and purify the recombinant protein containing the protein kinase region; polyglutamic acid-tyrosine peptide segment [Poly(Glu, Tyr) 4:1] and sodium vanadate were purchased from Sigma; the anti-phosphorylated monoclonal antibody PY99 was purchased from Santa Cruz; horseradish peroxidase labeled goat anti-murine secondary antibody was purchased from Calbiochem; ATP and OPD were purchased from Sangon Biotech (Shanghai) Co., Ltd.; the remaining reagents were purchased from Sinopharm Chemical Reagent Co., Ltd. The reaction ELISA plate (#2592) was purchased from Corning. The full-wavelength microplate reader for experiment reading was a product of Molecular Device, model: SpectraMax 190; the experimental water was distilled water produced by Sinopharm Group.
The compound was centrifuged at 12,000 g for 5 min, and DMSO was added to prepare a 10^-2M stock solution, which was vortexed evenly, then sonicated for 10 min and stored at −40° C. for later use. During the test, the compound was diluted with DMSO from the stock solution to 100 times the test concentration (the DMSO concentration in the system was 1%).
as §1, §2, §3, §4, §5, §6
The IC50 value was obtained by four-parameter regression using the software that came with the microplate reader.

[5] = molecular target: Abl (Homo sapiens (Human), UniProt P00519); experiment: Enzyme selectivity test (ELISA), Abl; type: biochemical
Protocol: as §1, §2, §3, §4, §5, §6, §7

[6] = molecular target: EGFR (Homo sapiens (Human), UniProt P00533); experiment: Enzyme selectivity test (ELISA), EGFR; type: biochemical
Protocol: as §1, §2, §3, §4, §5, §6, §7

[7] = tested on: pulmonary fibrosis induced by bleomycin in mice; experiment: mRNA levels of fibrosis-related markers in lung tissue (qRT-PCR); type: in vivo, mouse; conditions: 60, 90 mg/kg
Protocol: About 30 mg of cryopreserved lung tissue was weighed and homogenized and lysed by adding 200 μL of Trizol (Takara, 9109 #). The fluid after the lysis in the well was collected by the RNA sterilization-grade pipette tip and transferred to the corresponding sterile EP tube. […] of chloroform was added, shaken vigorously for 30 sec, and centrifuged for 15 minutes in a centrifuge at 4° C. at 12000 rpm. The upper aqueous layer was transferred to a new EP tube, an equal volume of isopropanol was used to precipitate the RNA in the aqueous phase, and the tube was allowed to stand at −20° C. for more than 1 hr. And then the tube was centrifuged for 15 min at 4° C. at 12000 rpm, and the supernatant was discarded. 75% ethanol was added to wash the RNA pellet, and then the tube was centrifuged for 15 min at 4° C. at 12000 rpm, and the supernatant was discarded. The tube was placed at room temperature for 10-20 min to dry the RNA pellet. 25-200 μL of RNase-free water was added for dissolution and stored at −80° C.
PrimeScript™ RT Master Mix (Takara, RR036A) was selected for mRNA reverse transcription. Please refer to the instructions for the system. In short, 1 μg of mRNA was added to a 20 μL system, mixed and then kept at a constant temperature in a 37° C. water bath for 15 minutes, and then the enzyme was inactivated at 85° C. for 5 seconds. After centrifugation, double distilled water was used to dilute 10 times.
Q-PCR technology used 2×SYBR Green qPCR Master Mix (B21202, Biomake), and the reaction system could be prepared according to the instruction (10 μL of 2×SYBGreen, 8.8 μL of cDNA template, 1.2 μL of 5 μM primer Mix). The reaction conditions are: pre-denaturation at 95° C. for 5 min, denaturation at 95° C. for 30 sec, annealing at 60° C. for 30 sec, and extension at 72° C. for 30 sec, the number of reaction cycles is 40 cycles.
The experiment used qRT-PCR technology to determine the mRNA levels of fibrosis-related markers in lung tissue.
The experimental method was the same as that for the evaluation of the mRNA levels of inflammatory cytokines.

Chain of Abl (P00519 whole entry, species assumed): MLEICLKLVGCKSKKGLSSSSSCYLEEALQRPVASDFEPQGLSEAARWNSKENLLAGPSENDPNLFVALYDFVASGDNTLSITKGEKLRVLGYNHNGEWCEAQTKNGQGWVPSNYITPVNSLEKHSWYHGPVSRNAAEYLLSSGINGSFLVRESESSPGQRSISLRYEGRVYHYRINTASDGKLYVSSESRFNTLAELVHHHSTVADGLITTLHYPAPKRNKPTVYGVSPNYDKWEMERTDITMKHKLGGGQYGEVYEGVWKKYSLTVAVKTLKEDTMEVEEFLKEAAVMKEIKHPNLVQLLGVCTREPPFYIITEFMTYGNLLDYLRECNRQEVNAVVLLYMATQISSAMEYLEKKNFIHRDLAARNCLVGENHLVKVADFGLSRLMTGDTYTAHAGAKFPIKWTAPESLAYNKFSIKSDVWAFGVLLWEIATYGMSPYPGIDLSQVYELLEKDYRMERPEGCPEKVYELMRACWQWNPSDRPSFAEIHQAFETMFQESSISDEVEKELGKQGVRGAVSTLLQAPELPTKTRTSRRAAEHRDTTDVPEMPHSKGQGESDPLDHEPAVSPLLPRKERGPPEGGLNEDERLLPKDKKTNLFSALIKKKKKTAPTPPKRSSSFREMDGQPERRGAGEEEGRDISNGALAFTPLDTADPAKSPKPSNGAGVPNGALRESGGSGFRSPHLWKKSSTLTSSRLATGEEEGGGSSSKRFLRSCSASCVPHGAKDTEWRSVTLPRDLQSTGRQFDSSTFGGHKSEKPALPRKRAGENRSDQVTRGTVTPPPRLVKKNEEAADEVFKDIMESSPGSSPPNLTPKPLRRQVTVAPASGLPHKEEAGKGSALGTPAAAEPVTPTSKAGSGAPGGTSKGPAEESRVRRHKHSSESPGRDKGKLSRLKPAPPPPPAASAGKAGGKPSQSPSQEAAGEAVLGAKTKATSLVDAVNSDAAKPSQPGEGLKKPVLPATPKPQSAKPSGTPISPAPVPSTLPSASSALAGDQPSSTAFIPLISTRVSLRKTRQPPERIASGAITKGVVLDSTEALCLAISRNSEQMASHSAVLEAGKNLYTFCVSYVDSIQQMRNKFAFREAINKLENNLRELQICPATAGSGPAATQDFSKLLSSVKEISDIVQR
Chain of DDR2 (Q16832 563-849): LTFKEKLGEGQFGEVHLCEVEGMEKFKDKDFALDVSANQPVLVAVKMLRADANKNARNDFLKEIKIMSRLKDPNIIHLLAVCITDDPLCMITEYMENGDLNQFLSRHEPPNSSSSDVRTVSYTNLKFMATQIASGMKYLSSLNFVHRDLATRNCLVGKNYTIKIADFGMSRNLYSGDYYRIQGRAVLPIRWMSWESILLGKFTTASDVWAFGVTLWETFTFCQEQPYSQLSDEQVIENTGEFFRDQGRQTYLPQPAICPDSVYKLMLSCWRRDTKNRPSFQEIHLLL
Chain of EGFR (P00533 25-1210, species assumed): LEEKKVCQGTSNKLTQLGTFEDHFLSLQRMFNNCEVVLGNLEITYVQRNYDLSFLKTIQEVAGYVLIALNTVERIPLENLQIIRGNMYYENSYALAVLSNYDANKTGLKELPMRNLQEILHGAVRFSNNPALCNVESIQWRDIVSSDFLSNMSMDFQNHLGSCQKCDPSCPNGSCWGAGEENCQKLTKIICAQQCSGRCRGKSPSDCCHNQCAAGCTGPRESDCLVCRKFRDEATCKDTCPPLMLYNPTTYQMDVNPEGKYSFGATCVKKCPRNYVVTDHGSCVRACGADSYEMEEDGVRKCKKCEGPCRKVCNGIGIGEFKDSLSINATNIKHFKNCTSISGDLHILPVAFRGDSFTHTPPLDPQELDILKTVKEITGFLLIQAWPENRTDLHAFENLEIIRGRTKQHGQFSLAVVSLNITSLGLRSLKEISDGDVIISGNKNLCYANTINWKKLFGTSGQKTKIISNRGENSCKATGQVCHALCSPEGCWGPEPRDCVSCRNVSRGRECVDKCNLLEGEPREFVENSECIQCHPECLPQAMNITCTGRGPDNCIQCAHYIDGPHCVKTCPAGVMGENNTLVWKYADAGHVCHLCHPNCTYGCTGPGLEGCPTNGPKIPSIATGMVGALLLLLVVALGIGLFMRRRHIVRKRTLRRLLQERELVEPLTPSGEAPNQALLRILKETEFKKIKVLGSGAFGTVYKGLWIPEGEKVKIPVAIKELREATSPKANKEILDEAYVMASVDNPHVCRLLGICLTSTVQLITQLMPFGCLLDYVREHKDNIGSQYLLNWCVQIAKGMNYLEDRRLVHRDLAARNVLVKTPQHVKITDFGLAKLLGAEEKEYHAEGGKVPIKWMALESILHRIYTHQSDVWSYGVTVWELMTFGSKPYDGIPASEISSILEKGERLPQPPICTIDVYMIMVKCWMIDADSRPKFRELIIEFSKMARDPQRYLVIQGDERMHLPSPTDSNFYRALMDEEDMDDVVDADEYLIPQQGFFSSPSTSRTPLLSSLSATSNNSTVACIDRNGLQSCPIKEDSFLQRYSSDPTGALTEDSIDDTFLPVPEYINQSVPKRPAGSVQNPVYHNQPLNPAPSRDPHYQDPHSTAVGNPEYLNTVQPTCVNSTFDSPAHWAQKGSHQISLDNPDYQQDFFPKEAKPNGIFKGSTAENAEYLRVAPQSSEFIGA
Chain of PDGFR-α (P16234 24-1089, species assumed): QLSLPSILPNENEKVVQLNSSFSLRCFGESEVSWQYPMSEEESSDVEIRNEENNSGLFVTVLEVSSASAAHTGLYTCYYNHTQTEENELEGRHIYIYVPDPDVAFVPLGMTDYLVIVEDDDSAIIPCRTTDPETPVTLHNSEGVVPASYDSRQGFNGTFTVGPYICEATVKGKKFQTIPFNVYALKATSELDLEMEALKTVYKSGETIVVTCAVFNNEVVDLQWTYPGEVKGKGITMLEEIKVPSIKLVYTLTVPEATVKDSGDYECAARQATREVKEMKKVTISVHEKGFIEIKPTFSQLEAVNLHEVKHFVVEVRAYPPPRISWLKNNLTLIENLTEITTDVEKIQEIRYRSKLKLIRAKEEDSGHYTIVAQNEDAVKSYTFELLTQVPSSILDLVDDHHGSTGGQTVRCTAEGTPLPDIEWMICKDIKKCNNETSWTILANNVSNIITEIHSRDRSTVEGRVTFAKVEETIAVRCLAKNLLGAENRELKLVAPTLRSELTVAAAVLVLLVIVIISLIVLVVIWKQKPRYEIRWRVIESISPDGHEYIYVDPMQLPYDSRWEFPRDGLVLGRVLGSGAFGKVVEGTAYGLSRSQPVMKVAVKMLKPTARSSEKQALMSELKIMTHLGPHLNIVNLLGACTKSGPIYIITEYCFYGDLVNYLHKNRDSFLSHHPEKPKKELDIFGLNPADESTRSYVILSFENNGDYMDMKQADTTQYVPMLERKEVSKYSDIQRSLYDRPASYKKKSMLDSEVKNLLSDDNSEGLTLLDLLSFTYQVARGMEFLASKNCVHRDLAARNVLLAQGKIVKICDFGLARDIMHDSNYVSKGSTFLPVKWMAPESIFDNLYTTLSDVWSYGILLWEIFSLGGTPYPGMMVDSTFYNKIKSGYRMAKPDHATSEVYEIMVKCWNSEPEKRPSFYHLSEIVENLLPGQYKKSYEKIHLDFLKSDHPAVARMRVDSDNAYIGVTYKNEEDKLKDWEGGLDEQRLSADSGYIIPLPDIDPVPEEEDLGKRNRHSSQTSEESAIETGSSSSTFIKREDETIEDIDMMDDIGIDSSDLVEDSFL
Chain of ErbB4 (Q15303 26-1308, species assumed): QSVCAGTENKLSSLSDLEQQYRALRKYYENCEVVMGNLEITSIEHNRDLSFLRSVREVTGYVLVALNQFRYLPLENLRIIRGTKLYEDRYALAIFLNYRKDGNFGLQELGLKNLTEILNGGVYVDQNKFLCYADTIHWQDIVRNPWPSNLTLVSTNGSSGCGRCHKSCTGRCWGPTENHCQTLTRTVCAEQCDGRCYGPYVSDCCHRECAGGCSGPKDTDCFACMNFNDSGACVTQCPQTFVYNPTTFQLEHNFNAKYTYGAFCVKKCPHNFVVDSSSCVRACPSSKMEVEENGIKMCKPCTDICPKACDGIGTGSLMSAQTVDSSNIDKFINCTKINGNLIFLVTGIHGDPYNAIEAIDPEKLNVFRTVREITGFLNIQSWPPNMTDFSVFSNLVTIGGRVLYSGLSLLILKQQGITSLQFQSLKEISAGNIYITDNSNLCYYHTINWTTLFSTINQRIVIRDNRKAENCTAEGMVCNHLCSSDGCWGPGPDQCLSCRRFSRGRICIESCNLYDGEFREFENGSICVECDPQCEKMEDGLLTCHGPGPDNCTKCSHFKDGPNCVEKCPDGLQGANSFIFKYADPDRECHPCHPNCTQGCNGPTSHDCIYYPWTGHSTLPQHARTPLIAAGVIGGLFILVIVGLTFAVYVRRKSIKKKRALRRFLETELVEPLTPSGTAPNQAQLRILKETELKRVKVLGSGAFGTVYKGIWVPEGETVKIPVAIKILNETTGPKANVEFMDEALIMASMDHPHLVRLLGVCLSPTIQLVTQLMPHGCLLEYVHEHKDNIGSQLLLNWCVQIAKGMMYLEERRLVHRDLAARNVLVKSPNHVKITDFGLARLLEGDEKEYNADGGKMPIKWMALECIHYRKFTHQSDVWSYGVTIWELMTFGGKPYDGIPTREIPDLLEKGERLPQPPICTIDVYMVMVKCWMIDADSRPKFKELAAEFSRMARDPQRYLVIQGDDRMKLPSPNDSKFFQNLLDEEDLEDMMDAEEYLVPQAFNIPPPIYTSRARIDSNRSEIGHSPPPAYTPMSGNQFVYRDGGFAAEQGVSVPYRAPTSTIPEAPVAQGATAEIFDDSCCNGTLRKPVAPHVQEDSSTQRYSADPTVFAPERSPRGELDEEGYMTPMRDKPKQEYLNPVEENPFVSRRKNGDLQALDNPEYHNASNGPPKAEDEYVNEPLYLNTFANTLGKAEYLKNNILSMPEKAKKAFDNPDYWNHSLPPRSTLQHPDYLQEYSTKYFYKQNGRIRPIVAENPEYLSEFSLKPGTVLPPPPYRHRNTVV

## O=C(Nc1cccc(C(F)(F)F)c1)c1ccc(C2CC2)c(-c2ccc3nc(Nc4cnn(C5CC5)c4)ncc3c2)c1 [Compound S15, 4-cyclopropyl-3-(2-((1-cyclopropyl-1H-pyrazol-4-yl)amino)quinazolin-6-yl)-N-(3-(trifluoromethyl)phenyl)benzamide]
[1]
  IC50: > 10 nM
[2]
  IC50: > 1000 nM
[3]
  selectivity for kinases: good selectivity
[4]
  IC50: 6.1 ± 0.5 nM
[5]
  IC50: < 10 nM
[6]
  IC50: > 1000 nM
[7]
  reduction of expression (mRNA) of Collagen1-α1: about 90%
  reduction of expression (mRNA) of TGF-β1: about 90%
  reduction of expression (mRNA) of α-SMA: about 90%
